Data on one compound can be found in patent US20170014375A1, “PHARMACEUTICAL COMPOSITION COMPRISING EFFECTIVE DOSE OF POMIFERIN FOR TREATING CANCERS” (Macau University of Science and Technology, priority 2015, published 2017).

Assay [1] has as its system HCT-116 p53+/+ isogenic colon cancer cells. Description: MTT cytotoxicity assay, HCT116 p53+/+. It is filed as cell-based. The conditions noted are these: Homo sapiens, HCT-116, 72 h, HCT116 p53+/+ (wild-type), 3 days, read-out: Means of IC50. As to the method:
The test compound of pomiferin is dissolved in DMSO at a final concentration of 100 mmol/L and stored at −20° C. Cytotoxicity is assessed using the 3-(4,5-dimethylthiazol-2-yl)-2,5-diphenyltetrazolium bromide assay as previously described^29. 4000 of drug-resistant HCT-116 p53+/+, HCT-116 p53−/− and HCT-116 p53−/− isogenic colon cancer cells are seeded on 96-well plates per well. After overnight pre-incubation, the cells are exposed to different concentrations of pomiferin (namely […]) for 3 days. Subsequently, 10 μL of MTT reagents is added to each well and incubated at 37° C. for 4 hours, followed by the addition of 100 μL solubilization buffer (10% SDS in 0.01 mol/L HCl) and overnight incubation. Absorbance at 585 nm is determined from each well on the following day. The percentage of cell viability is calculated using the following formula: Cell viability (%)=Cells numbertreated/Cells numberDMSO control×100. Data is obtained from three independent experiments.
For orientation: Tetrazolium dyes change colour on reduction, which living cells bring about.

The subject of assay [2] is Hep3B (human liver cancer) cells. Description: MTT cytotoxicity assay, Hep3B. Format: cell-based. The conditions noted are these: 72 h, Hep 3B (Liver), 3 days, read-out: Means of IC50. As to the method:
(§1) Pomiferin is dissolved in DMSO at a final concentration of 100 mmol/L and stored at −20° C. Cytotoxicity is assessed using the 3-(4,5-dimethylthiazol-2-yl)-2,5-diphenyltetrazolium bromide assay. 4000-8000 HeLa (human cervical cancer), MCF-7 (human breast cancer), HepG2 and Hep3B (human liver cancer), H1299 and A549 (human lung cancer), LNCap (human prostate cancer) and LLC-1 (mouse Lewis lung carcinoma) cells are seeded on 96-well plates per well. After overnight pre-incubation, the cells are exposed to different concentrations of pomiferin ([…]) for 3 days. Subsequently, 10 μL of MTT reagents is added to each well and incubated at 37° C. for 4 hours followed by the addition of 100 μL solubilization buffer (10% SDS in 0.01 mol/L HCl) and overnight incubation. Absorbance at 585 nm is determined from each well the next day. The percentage of cell viability is calculated using the following formula: Cell viability (%)=Cells number treated/Cells number DMSO control×100. Data are obtained from three independent experiments.

Assay [3] has as its system drug-resistant HCT-116 p53−/− colon cancer cells. Description: Annexin V/PI flow cytometry cell death, HCT-116 p53−/−. The note with it: 10 μM pomiferin alone, 24 h, FIGS. 9A & B. Format: cell-based. As to the method:
(§2) Cell death is measured using an annexin V staining kit (BD Biosciences, San Jose, Calif., USA). Briefly, drug-resistant HCT-116 p53−/− deficient colon cancer cells are treated with the 10 μM pomiferin in the presence or absence of 5 mM autophagic inhibitor 3-MA or 10 M calcium chelator BAPTA/AM for 24 h. Cells are then harvested and analysed by multiparametric flow cytometry using FITC-Annexin V and Propidium iodide staining (BD Biosciences, San Jose, Calif., USA) according to the manufacturer's instructions. Flow cytometry is then carried out using a FACSCalibur flow cytometer (BD Biosciences, San Jose, Calif., USA). Data acquisition and analysis is performed with CellQuest (BD Biosciences, San Jose, Calif., USA). Data are obtained from three independent experiments.
For orientation: Flow cytometry measures light scatter and fluorescence of single cells or particles in a stream.

The subject of assay [4] is panel of human and mouse cancer cells. Description: MTT cytotoxicity assay, panel of human and mouse cancer cells. Format: cell-based. The note with it: 72 hours, read-out: mean IC50 value range over the panel. As to the method:
as §1

Assay [5] relates to LLC-1 (mouse Lewis lung carcinoma) cells. Description: MTT cytotoxicity assay, LLC-1. The note with it: LLC1, 72 h, LLC-1 (Lung), 3 days, read-out: Means of IC50. It is filed as cell-based. As to the method: as §1
The test system of assay [6] is Atg7 wild-type (Atg7+/+) mouse embryonic fibroblasts. Description: Annexin V/PI flow cytometry cell death, Atg7+/+ MEFs. The note with it: 2 μM, 24 h, FIG. 6B. Format: cell-based. As to the method: as §2, with “viability” for “death”, “Atg7 wild-type (Atg7+/+ or Atg7-wt) and Atg7” for “drug-resistant HCT-116 p53−/−”, “(Atg7−/− or Atg7-ko) mouse embryonic fibroblasts (MEFs)” for “colon cancer cells”, “2” for “10”, “pomiferin” for “pomiferin in the presence or absence of 5 mM autophagic inhibitor 3-MA or 10 M calcium chelator BAPTA/AM”

The subject of assay [7] is MCF-7 (human breast cancer) cells. Description: MTT cytotoxicity assay, MCF-7. It is filed as cell-based. The conditions noted are these: MCF7, 72 h, MCF-7 (Breast), 3 days, read-out: Means of IC50. As to the method: as §1
Assay [8] deals with AMPK-mTOR signaling in HeLa cancer cells. Description: Western blot of mTOR signaling marker proteins (P-AMPK, P-p70S6K). Format: cell-based, human. The note with it: FIG. 3A. As to the method:
HeLa cancer cells treated with indicated time and concentrations of pomiferin are harvested and lysed in RIPA buffer (Cell Signaling). The cell lysates are then resolved by SDS-PAGE. After electrophoresis, the proteins from SDS-PAGE are transferred to nitrocellulose membrane which is then blocked with 5% non-fat dried milk for 60 minutes. The membrane is then incubated with P-p70S6K, p70S6K, P-AMPK, AMPK and actin primary antibodies (1:1000) in TBST overnight at 4° C. respectively. After that, the membrane is further incubated with HRP-conjugated secondary antibodies for 60 minutes. Finally, protein bands are visualized by using the ECL Western Blotting Detection Reagents (Invitrogen).
In general terms: In western blotting, separated proteins are transferred to a membrane and probed.

One may read the IC50 as the concentration that inhibits the measured activity by half. On to `CC(C)=CCc1c2c(c3occ(-c4ccc(O)c(O)c4)c(=O)c3c1O)C=CC(C)(C)O2` [pomiferin], for which the IC50 in assay [1] was 6.51 µM; in assay [2], 16.3 µM; in assay [4], 3.82 to 20.3 µM; in assay [5] it was 3.82 µM; in assay [7] it was 19 µM. The “cell death (in words)” value in assay [3] is recorded as “significantly induced cell death”; in assay [6], “markedly induce cell death”. For the same compound, in assay [8], the “p70S6K phosphorylation (mTOR downstream)” value is given as “concomitant reduction”. The “phosphorylation of AMPK” value in assay [8] was “activate the phosphorylation of AMPK in a time dependent manner”.
